From US20230063457A1, “DNA-PK INHIBITING COMPOUNDS” (Provincial Health Services Authority, priority 2019, published 2023)

Columns and labels:
[1] = test system: HCT116 cells; assay: Stirred cell suspension assay, release of parent inhibitor from prodrug (HCT116); format: cell-based, human; settings: hypoxic conditions; 1% HCT116 cells by volume in media with 10% FBS at 37° C., FIG. 2
Protocol: Stirred Cell Suspension Assay
All compounds tested were dissolved in DMSO at 10 mM/L and further dilutions were made in culture medium. Final DMSO concentration was <0.3% (v/v). The human FaDu and HCT116 cells (ATCC) were cultured in MEM medium and 10% fetal calf serum (PAA). Cells were routinely maintained at densities of 0.2×10e6 cells per ml and incubated at 37° C. in a humidified 5% CO2, 95% air atmosphere. Cells were passaged twice a week, splitting back to obtain the low density. At the time of experiment, cells were trypsinized, counted and suspended at a density of 1% cells/volume in glass vials containing 2 ml stirred media and gassed at different pO2. After 30 minutes, test compounds were added at 25 μM/L and 150 μl samples were removed at intervals up to 4 hours. Each sample was split to test for (1) free drug and (2) total extraction and analysed using high performance liquid chromatography to measure the release of the parent inhibitor from the hypoxia activated prodrug.

[2] = target: DNA-PK kinase (Homo sapiens, UniProt P78527); assay: Inhibition of DNA-PK kinase activity (ADP-Glo); format: biochemical; settings: averaged values over all measurements on all batches; 150 μM ATP, 1 hour at 25° C.
Procedure, shortened: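 Enzyme preincubated 15 min with compound in 50 mM Hepes pH 7.5, 20 mM MgCl2, 10 μg/ml calf thymus DNA, 1% DMSO; reaction started with 150 μM ATP and 0.2 μg/μl DNA-PK substrate, 1 h at 25° C. ADP-Glo luminescence, blank-subtracted; IC50 from sigmoidal fit of % inhibition versus log concentration.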

[3] = target: T1, Phospho-DNA-PK in FaDu Cells (Homo sapiens, UniProt P78527); assay: Effect of compounds on phospho-DNA-PK in FaDu cells (MesoScale sandwich immunoassay); format: cell-based; settings: 1 hour pre-incubation, 1 μg/ml Neocarzinostatin 2 hours, averaged values, read-out: MSD FaDu IC50
T1 construct: host or cells: FaDu

Row | conversion of prodrug to the respective parent compound [1] | IC50 [2] | IC50 [3] | SMILES
1 | released the respective parent compound |  |  | CC(C)n1ncc(COc2cnc3cc(N4CCOCC4)nc(O[C@H]4CC[C@@H](n5ccnc5)CC4)c3c2)c1[N+](=O)[O-] [Prodrug 15]
2 |  | 44 nM | 1310 nM | c1cnc(N2CCC(COc3nc(N4CCOCC4)cc4ncccc34)CC2)nc1 [Example 129]
